Source: US20240287046A1, “COMPOUNDS AND RADIOLIGANDS FOR TARGETING NEUROTENSIN RECEPTOR AND USES THEREOF” (Full-Life Technologies HK Limited, priority 2022, published 2024)

Key:
[1] = tested on: ASPC-1 tumor-bearing mice; experiment: Biodistribution of radionuclide labeled complexes in ASPC-1 tumor-bearing mice; assay type: in vivo, BALB/c nude mice
Summary of the method: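 Radiolabeled compound (~30-50 μCi, ~1.11-1.85 MBq, specific activity 30-250 μCi/nmol) was injected i.v. via tail vein into nude mice carrying 0.05-0.50 g subcutaneous NTSR-1-positive human tumors. At set times, tissues were collected, weighed and γ-counted; % ID and % ID/g were calculated.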

human NTSR-1 [2] = target: T1, human NTSR-1 (Homo sapiens (Human), UniProt P30989); experiment: radioligand competitive binding assay using ^177Lu labeled C-1 as reference radioligand
T1 sequence (P30989 whole entry): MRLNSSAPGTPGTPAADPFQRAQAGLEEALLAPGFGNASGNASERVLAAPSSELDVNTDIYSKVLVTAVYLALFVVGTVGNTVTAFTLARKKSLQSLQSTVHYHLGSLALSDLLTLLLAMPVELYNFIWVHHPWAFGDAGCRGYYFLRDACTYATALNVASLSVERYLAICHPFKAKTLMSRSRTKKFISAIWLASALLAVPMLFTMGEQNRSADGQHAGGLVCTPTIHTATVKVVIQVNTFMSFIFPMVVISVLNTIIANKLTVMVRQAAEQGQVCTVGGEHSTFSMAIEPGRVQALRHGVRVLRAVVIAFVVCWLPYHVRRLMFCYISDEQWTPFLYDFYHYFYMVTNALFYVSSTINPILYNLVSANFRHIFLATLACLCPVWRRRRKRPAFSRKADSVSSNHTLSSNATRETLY
Experimental: The binding affinities of test compounds were determined by a radioligand competitive binding assay using ^177Lu labeled C-1 as the reference radioligand.
Briefly, 100 μL HT-29 cells expressing human NTSR-1 at a density of 1˜2×10^6 cells/mL were mixed with binding buffer (RPMI-1640 medium supplemented with 0.25% bovine serum albumin) in each well of the 96-well filter plate (Millipore). Then the cells in each well were incubated with ^177Lu—C-1 (0.55 μCi/well) and the test compound under 37° C. for 1 hr (n=3). After incubation, unbound ^177Lu—C-1 and the test compound in each well was removed by filtration using a Multiscreen vacuum manifold (Millipore) and the cells were further rinsed with the binding buffer for 5 times. The cells from each well were then collected and radioactivity of the cells in each well was individually measured by y counter (2480 WIZARD2, PerkinElmer). The best-fit IC50 value of test compounds (inhibitory concentration when 50% of the bound ^177Lu—C-1 on cells were displaced) were calculated by fitting the data with nonlinear regression using GraphPad Prism 8.0.1.

human NTSR-1 [3] = target: T1, human NTSR-1; experiment: FLIPR assay, inhibition of Neurotensin-induced intracellular-calcium mobilization; assay type: cell-based; conditions: HEK293 cells stably expressing human NTSR-1, mean; read-out: IC50 (nM) in FLIPR Assays
Experimental: Binding affinities of the representative compounds were also evaluated by FLIPR assay. Neurotensin receptor 1 belongs to the G-protein coupled receptors (GPCR) family. Activation of NTSR-1 by its ligand Neurotensin can induce intracellular-calcium mobilization. In FLIPR assay, the test compound and Neurotensin were incubated together with cells expressing NTSR-1 to measure inhibition of the intracellular-calcium mobilization by the test compound so that to evaluate its binding affinity.
Briefly, HEK293 cells stably expressing human NTSR-1 were plated in 384-well plates. 20 ul cell suspension at a concentration of 10×10^5 per ml was seeded in each well and incubated at 37° C. 5% CO2 overnight. Then the cells in each well were mixed with 20 ul probenecid assay buffer, 20 ul 8 uM Fluo-4 Direct™ Loading Buffer, 6×EC80 of Neurotensin and 10 μl of the diluted test compound, and incubated at 37° C. 5% CO2 for 50 min followed by incubation at room temperature for 10 min. The plate was then subject to FLIPR analysis.

[4] = tested on: pancreatic cancer patients; conditions: cited from earlier work
[5] = tested on: ASPC-1 tumor-bearing mice; experiment: PET/CT imaging of ^68Ga-labeled complexes; assay type: in vivo; conditions: over 180 minutes
Experimental: ASPC-1 tumor-bearing mice were IV-injected with 150 μCi of ^68Ga-labeled compounds, anesthetized under 2% isoflurane/oxygen gas and placed on the scanner. PET images were acquired in one bed position for 10 min using an animal PET/SPECT/CT (Inliview-3000B). Whole-body PET images were acquired at 30, 60, 120 and 180 minutes after injection of the radiotracers.

ASPC-1 tumor = experiment: In vivo efficacy of ^225Ac therapy; conditions: ASPC-1 tumor-bearing mice; for tumor inhibition compared to the vehicle group: single dose of 18, 37 or 74 KBq; for dose sufficient to achieve the maximal effect: single dose
Experimental: In vivo efficacy of the ^177Lu labeled complexes and ^225Ac labeled complexes of the present application was evaluated in ASPC-1 tumor-bearing mice. For ^177Lu therapy study, animals in each group were dosed with vehicle or 0.6 mCi activity of the radiolabeled complexes at Day 1 and Day 5, respectively. For ^225Ac therapy studies, animals in each group were administered with a single dose of vehicle, 18, 37 or 74 KBq activity of the radiolabeled complexes, respectively.
The tumor volume (V) was determined according to the equation (V=[…]×L×W×H) at different time points, where L is the longest axis and W is the perpendicular axis to L, and H is the perpendicular axis to L and W plane. Endpoint (sacrifice) criteria were defined as either when the tumor volume exceeded 1.5 cm^3, or 20% body weight loss.

## COc1cccc(OC)c1-c1cc(C(=O)NC2(C(=O)O)C3CC4CC(C3)CC2C4)nn1-c1ccc(C(=O)N(C)CCCN(C)CCCN(C)C(=O)CN2CCN(CC(=O)O)CCN(CC(=O)O)CCN(CC(=O)O)CC2)cc1C(C)C (stereo not drawn) [Compound C-2, 2,2′,2″-(10-(2-((3-((3-(4-(3-((2-carboxyadamantan-2-yl)carbamoyl)-5-(2,6-dimethoxyphenyl)-1H-pyrazol-1-yl)-3-isopropyl-N-methylbenzamido)propyl)(methyl)amino)propyl)(methyl)amino)-2-oxoethyl)-1,4,7,10-tetraazacyclododecane-1,4,7-triyl)triacetic acid, reference compound]
[1]; ^177Lu-labeled complex
  AUC (0-72 h) ratio Tumor/Blood: 9.0
  AUC (0-72 h) ratio Tumor/Kidney: 8.80
  AUC (0-72 h) ratio Tumor/Liver: 7.61
  AUC (0-72 h) ratio Tumor/Lung: 14.2
Human NTSR-1 [2]; Mean IC50 of C-1/Mean IC50 of the test compound
  Relative Binding Affinity: 7.2
Human NTSR-1 [2]; competitive radioligand binding assay using HT-29 cells
  potency relative to SR142948: about 40%
Human NTSR-1 [3]
  IC50: 45.4 nM
[4]; ^177Lu-chelated form, small number of pancreatic cancer patients
  tumor uptake of the radioligand: clearly observed

## COc1cccc(OC)c1-c1cc(C(=O)NC2(C(=O)O)C3CC4CC(C3)CC2C4)nn1-c1ccc(N(CCCN(C)C)C(=O)COCCOCCNC(=O)CN2CCN(CC(=O)[O-])CCN(CC(=O)[O-])CCN(CC(=O)[O-])CC2)cc1C(C)C.[68Ga+3] (stereo not drawn) [^68Ga—I-6]
[5]; ASPC-1 tumor-bearing mice
  tumor uptake/retention compared to ^68Ga—C-5 (PET/CT): stronger tumor uptake/retention
[5]; such as tumor to liver
  tumor to normal contrast compared to ^68Ga—C-5 (PET/CT): better tumor to normal contrast

## COc1cccc(OC)c1-c1cc(C(=O)NC2(C(=O)O)C3CC4CC(C3)CC2C4)nn1-c1ccc(C(=O)N(C)CCCN(C)CCCN(C)C(=O)CN2CCN(CC(=O)[O-])CCN(CC(=O)[O-])CCN(CC(=O)[O-])CC2)cc1C(C)C.[177Lu+3] (stereo not drawn) [^177Lu-C-2, reference compound]
[1]; Blood, 1 h
  % ID/g (1 h) Blood: 13.87 ± 0.17 % ID/g
[1]; Blood, 4 h
  % ID/g (4 h) Blood: 4.46 ± 0.64 % ID/g
[1]; Blood, 24 h
  % ID/g (24 h) Blood: 0.31 ± 0.1 % ID/g
[1]; Blood, 72 h
  % ID/g (72 h) Blood: 0.09 ± 0.01 % ID/g
[1]; Femur, 1 h
  % ID/g (1 h) Femur: 1.34 ± 0.23 % ID/g
[1]; Femur, 4 h
  % ID/g (4 h) Femur: 0.89 ± 0.11 % ID/g
[1]; Femur, 24 h
  % ID/g (24 h) Femur: 0.22 ± 0.13 % ID/g
[1]; Femur, 72 h
  % ID/g (72 h) Femur: 0.12 ± 0.03 % ID/g
[1]; Heart, 1 h
  % ID/g (1 h) Heart: 4.83 ± 1.1 % ID/g
[1]; Heart, 4 h
  % ID/g (4 h) Heart: 1.72 ± 0.18 % ID/g
[1]; Heart, 24 h
  % ID/g (24 h) Heart: 0.37 ± 0.07 % ID/g
[1]; Heart, 72 h
  % ID/g (72 h) Heart: 0.16 ± 0.04 % ID/g
[1]; Intestine, 1 h
  % ID/g (1 h) Intestine: 1.98 ± 0.63 % ID/g
[1]; Intestine, 4 h
  % ID/g (4 h) Intestine: 1.62 ± 0.41 % ID/g
[1]; Intestine, 24 h
  % ID/g (24 h) Intestine: 0.44 ± 0.11 % ID/g
[1]; Intestine, 72 h
  % ID/g (72 h) Intestine: 0.15 ± 0.06 % ID/g
[1]; Kidney, 1 h
  % ID/g (1 h) Kidney: 3.34 ± 1.53 % ID/g
[1]; Kidney, 4 h
  % ID/g (4 h) Kidney: 2.6 ± 0.93 % ID/g
[1]; Kidney, 24 h
  % ID/g (24 h) Kidney: 1.36 ± 0.42 % ID/g
[1]; Kidney, 72 h
  % ID/g (72 h) Kidney: 0.46 ± 0.08 % ID/g
[1]; Liver, 1 h
  % ID/g (1 h) Liver: 2.01 ± 1.1 % ID/g
[1]; Liver, 4 h
  % ID/g (4 h) Liver: 2.51 ± 0.12 % ID/g
[1]; Liver, 24 h
  % ID/g (24 h) Liver: 1.53 ± 0.93 % ID/g
[1]; Liver, 72 h
  % ID/g (72 h) Liver: 0.99 ± 0.37 % ID/g
[1]; Lung, 1 h
  % ID/g (1 h) Lung: 3.67 ± 2.25 % ID/g
[1]; Lung, 4 h
  % ID/g (4 h) Lung: 1.92 ± 0.99 % ID/g
[1]; Lung, 24 h
  % ID/g (24 h) Lung: 0.69 ± 0.14 % ID/g
[1]; Lung, 72 h
  % ID/g (72 h) Lung: 0.23 ± 0.06 % ID/g
[1]; Muscle, 1 h
  % ID/g (1 h) Muscle: 0.93 ± 0.21 % ID/g
[1]; Muscle, 4 h
  % ID/g (4 h) Muscle: 0.31 ± 0.1 % ID/g
[1]; Muscle, 24 h
  % ID/g (24 h) Muscle: 0.1 ± 0.05 % ID/g
[1]; Muscle, 72 h
  % ID/g (72 h) Muscle: 0.06 ± 0.03 % ID/g
[1]; Pancreas, 1 h
  % ID/g (1 h) Pancreas: 0.8 ± 0.47 % ID/g
[1]; Pancreas, 4 h
  % ID/g (4 h) Pancreas: 0.27 ± 0.06 % ID/g
[1]; Pancreas, 24 h
  % ID/g (24 h) Pancreas: 0.1 ± 0.02 % ID/g
[1]; Pancreas, 72 h
  % ID/g (72 h) Pancreas: 0.07 ± 0.03 % ID/g
[1]; Spleen, 1 h
  % ID/g (1 h) Spleen: 1.25 ± 0.78 % ID/g
[1]; Spleen, 4 h
  % ID/g (4 h) Spleen: 0.49 ± 0.04 % ID/g
[1]; Spleen, 24 h
  % ID/g (24 h) Spleen: 0.35 ± 0.3 % ID/g
[1]; Spleen, 72 h
  % ID/g (72 h) Spleen: 0.34 ± 0.1 % ID/g
[1]; Stomach, 1 h
  % ID/g (1 h) Stomach: 1.35 ± 0.42 % ID/g
[1]; Stomach, 4 h
  % ID/g (4 h) Stomach: 0.6 ± 0.23 % ID/g
[1]; Stomach, 24 h
  % ID/g (24 h) Stomach: 0.15 ± 0.04 % ID/g
[1]; Stomach, 72 h
  % ID/g (72 h) Stomach: 0.05 ± 0 % ID/g
[1]; Tumor, 1 h
  % ID/g (1 h) Tumor: 10.34 ± 5.66 % ID/g
[1]; Tumor, 4 h
  % ID/g (4 h) Tumor: 16.13 ± 4.47 % ID/g
[1]; Tumor, 24 h
  % ID/g (24 h) Tumor: 12.6 ± 3.52 % ID/g
[1]; Tumor, 72 h
  % ID/g (72 h) Tumor: 8.03 ± 5.76 % ID/g
[4]; human study
  dose limiting organ: kidney

## COc1cccc(OC)c1-c1cc(C(=O)NC2(C(=O)O)C3CC4CC(C3)CC2C4)nn1-c1ccc(NC(=O)CCCN(C)CCCN(C)C(=O)CN2CCN(CC(=O)[O-])CCN(CC(=O)[O-])CCN(CC(=O)[O-])CC2)cc1C(C)C.[225Ac+3] (stereo not drawn) [^225Ac—I-5]
ASPC-1 tumor
  tumor inhibition compared to the vehicle group: significant tumor inhibition
  dose sufficient to achieve the maximal effect: 37 KBq

## COc1cccc(OC)c1-c1cc(C(=O)NC2(C(=O)O)C3CC4CC(C3)CC2C4)nn1-c1ccc(OCCCN(C)CCCN(C)C(=O)CN2CCN(CC(=O)[O-])CCN(CC(=O)[O-])CCN(CC(=O)[O-])CC2)cc1C(C)C.[225Ac+3] (stereo not drawn) [^225Ac—I-7]
ASPC-1 tumor
  tumor inhibition compared to the vehicle group: significant tumor inhibition
  dose sufficient to achieve the maximal effect: 37 KBq
